Values of other authors in patent publication US20090010894A1, “METHODS AND SYSTEMS FOR IDENTIFYING COMPOUNDS THAT MODULATE ALPHA-SYNUCLEIN AGGREGATION” (The parkinson's Institute, priority 2005, published 2009).

Columns and labels:
[1] = test system: transgenic C. elegans expressing A53T, E46K, or A30P human α-synuclein; conditions: exogenous dopamine; transgenic worms expressing mutant human α-synuclein
α-synuclein = α-synuclein (Homo sapiens, UniProt P37840); conditions: aggregated α-synuclein contacted with agent in vitro

Structure (SMILES) | reversal of failure in food-sensing behavior [1] | promotes disaggregation of α-synuclein (α-synuclein)
NCCc1ccc(O)c(O)c1 [dopamine] | reversed these effects | 
CO[C@H]1/C=C/O[C@@]2(C)Oc3c(C)c(O)c4c(O)c(c(/C=N/N5CCN(C)CC5)c(O)c4c3C2=O)NC(=O)/C(C)=C\C=C\[C@H](C)[C@H](O)[C@@H](C)[C@@H](O)[C@@H](C)[C@H](OC(C)=O)[C@@H]1C [rifampin] |  | shown to have such an effect
CO[C@H]1/C=C/O[C@@]2(C)Oc3c(C)c(O)c4c(O)c(cc(O)c4c3C2=O)NC(=O)/C(C)=C\C=C\[C@H](C)[C@H](O)[C@@H](C)[C@@H](O)[C@@H](C)[C@H](OC(C)=O)[C@@H]1C [rifamycin] |  | shown to have such an effect
